According to patent US10538555B2, “Macrocyclic inhibitors of the PD-1/PD-L1 and CD80(B7-1)/PD-L1 protein/protein interactions” (BRISTOL-MYERS SQUIBB COMPANY, priority 2014, dated 2020):
Where a SMILES comes first, the peptide text is derived from it. Bridges are numbered along the chain shown (N, C = ends). [ ]: non-standard residue; d: D form. ξ: configuration not given here. Trp(1-CH2COOH) = N[C@@H](Cc1cn(CC(=O)O)c2ccccc12)C(=O)O; Trp(βS-Me) = C[C@@H](c1c[nH]c2ccccc12)[C@H](N)C(=O)O; Phe(3,4,5-F3) = N[C@@H](Cc1cc(F)c(F)c(F)c1)C(=O)O; Phe(3,4-F2) = N[C@@H](Cc1ccc(F)c(F)c1)C(=O)O; NMePhe(4-F) = CN[C@@H](Cc1ccc(F)cc1)C(=O)O; Phe(4-F) = N[C@@H](Cc1ccc(F)cc1)C(=O)O; d(cisHyp) = O=C(O)[C@H]1C[C@@H](O)CN1; NMeY = CN[C@@H](Cc1ccc(O)cc1)C(=O)O; Hyp = O=C(O)[C@@H]1C[C@@H](O)CN1; NMeF = CN[C@@H](Cc1ccccc1)C(=O)O; dNMeF = CN[C@H](Cc1ccccc1)C(=O)O; dHyp = O=C(O)[C@H]1C[C@H](O)CN1; NMehSer = CN[C@@H](CCO)C(=O)O; NMeNle = CCCC[C@H](NC)C(=O)O; dPip = O=C(O)[C@H]1CCCCN1; hSer = N[C@@H](CCO)C(=O)O; NMeA = CN[C@@H](C)C(=O)O; Orn = NCCC[C@H](N)C(=O)O; Dab = NCC[C@H](N)C(=O)O; ξC = NC(CS)C(=O)O

Target: T1, Human PD-L1/PD-1 (Homo sapiens, UniProt Q9NZQ7)
T1 construct: TVMV protease cleavage site (C); made in house; host or cells: HEK293T cells
T1 sequence (Q9NZQ7 with tags, fused parts or gaps): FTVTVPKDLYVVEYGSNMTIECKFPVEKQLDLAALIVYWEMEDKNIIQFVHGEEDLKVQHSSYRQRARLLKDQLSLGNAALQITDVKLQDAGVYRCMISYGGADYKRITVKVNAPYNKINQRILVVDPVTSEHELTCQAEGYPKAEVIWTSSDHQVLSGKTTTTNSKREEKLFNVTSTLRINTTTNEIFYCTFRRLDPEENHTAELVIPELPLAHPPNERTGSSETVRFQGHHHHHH
Assay: HTRF Human PD-L1/PD-1 binding assay (PD-1-Ig/PD-L1-His)
Conditions: PD-L1-His 10 nM, PD-1-Ig 20 nM; class symbol; read-out: HTRF Human PD-L1/PD-1 Binding Assay IC50 Range
In short: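 Compound preincubated 15 min with PD-L1-His (10 nM final), then PD-1-Ig (20 nM final) added for 15 min in dPBS with 0.1% BSA and 0.05% Tween-20. Detection by Eu-cryptate anti-Ig (1 nM) and APC anti-His (20 nM) after 30 min; 665/620 nm HTRF ratio. Proteins expressed in HEK293T.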

IC50 | Compound
10 to 99.9 nM | CCCC[C@H]1C(=O)N(C)[C@@H](CCCC)C(=O)N[C@@H](C)C(=O)N[C@H](C(=O)NCC(N)=O)CSCC(=O)N[C@@H](Cc2ccc(O)cc2)C(=O)N(C)[C@@H](C)C(=O)N[C@@H](CC(=O)O)C(=O)N2CCC[C@H]2C(=O)N[C@@H](Cc2cnc[nH]2)C(=O)N[C@@H](CCCCN)C(=O)N2C[C@H](O)C[C@H]2C(=O)N[C@@H](Cc2c[nH]c3ccccc23)C(=O)N[C@@H](CO)C(=O)N[C@@H](Cc2c[nH]c3ccccc23)C(=O)N1C [Example 1247] ({CH2CO}-Y[NMeA]DPHK[Hyp]WSW[NMeNle][NMeNle]ACG-NH2; thioether N-14)
1 to 9.9 nM | COCC[C@H]1C(=O)N2C[C@@H](O)C[C@@H]2C(=O)N[C@@H](CC(=O)O)C(=O)N[C@@H](C(C)C)C(=O)N(C)[C@H](Cc2ccccc2)C(=O)N[C@@H](Cc2ccc(OC)cc2)C(=O)N2C[C@@H](O)C[C@@H]2C(=O)N[C@@H](Cc2c[nH]c3ccccc23)C(=O)N[C@@H](Cc2ccc(O)cc2)C(=O)N[C@@H](CCCN)C(=O)N[C@H](C(=O)NCC(N)=O)CSCC(=O)N[C@@H](Cc2ccc(F)c(F)c2)C(=O)N(C)[C@@H](Cc2ccccc2)C(=O)N1C [Example 9240] ({CH2CO}-[Phe(3,4-F2)][NMeF][NMehSer](Me)[dHyp]DV[dNMeF]Y(Me)[dHyp]WY[Orn]CG-NH2; thioether N-13)
1 to 9.9 nM | CCCC[C@H]1C(=O)N2CCC[C@@H]2C(=O)N[C@@H](CC(=O)O)C(=O)N[C@@H](C(C)C)C(=O)N(C)[C@@H](Cc2ccccc2)C(=O)N[C@@H](CCC(=O)O)C(=O)N2CCCC[C@@H]2C(=O)N[C@@H](Cc2c[nH]c3ccccc23)C(=O)N[C@@H](Cc2ccc(O)cc2)C(=O)N[C@@H](CCN)C(=O)N[C@H](C(=O)NCC(N)=O)CSCC(=O)N[C@@H](Cc2cc(F)c(F)c(F)c2)C(=O)N(C)[C@@H](Cc2ccc(O)cc2)C(=O)N1C [Example 10600] ({CH2CO}-[Phe(3,4,5-F3)][NMeY][NMeNle][dP]DV[NMeF]E[dPip]WY[Dab]CG-NH2; thioether N-13)
1 to 9.9 nM | CCCC[C@H]1C(=O)N2CCC[C@@H]2C(=O)N[C@@H](CC(=O)O)C(=O)N[C@@H](C(C)C)C(=O)N(C)[C@@H](Cc2ccccc2)C(=O)N[C@@H](CCCN)C(=O)N2CCC[C@@H]2C(=O)N[C@@H](Cc2c[nH]c3ccccc23)C(=O)N[C@@H](Cc2ccc(O)cc2)C(=O)N[C@@H](CC(C)C)C(=O)N[C@H](C(=O)NCC(N)=O)CSCC(=O)N[C@@H](Cc2ccc(F)cc2)C(=O)N(C)[C@@H](Cc2ccccc2)C(=O)N1C [Example 10102] ({CH2CO}-[Phe(4-F)][NMeF][NMeNle][dP]DV[NMeF][Orn][dP]WYLCG-NH2; thioether N-13)
10 to 99.9 nM | CCCC[C@H]1C(=O)N(C)[C@@H](CCCC)C(=O)N[C@@H](CCCN)C(=O)N[C@H](C(=O)NCC(N)=O)CSCC(=O)N[C@@H](Cc2ccc(OC)cc2)C(=O)N(C)[C@@H](C)C(=O)N[C@@H](CCN)C(=O)N2CCC[C@H]2C(=O)N[C@@H](Cc2cnc[nH]2)C(=O)N[C@@H](CCC(=O)O)C(=O)N2C[C@H](O)C[C@H]2C(=O)N[C@@H](Cc2c[nH]c3ccccc23)C(=O)N[C@@H](CC(=O)O)C(=O)N[C@@H](Cc2c[nH]c3ccccc23)C(=O)N1C [Example 7104] ({CH2CO}-Y(Me)[NMeA][Dab]PHE[Hyp]WDW[NMeNle][NMeNle][Orn]CG-NH2; thioether N-14)
1000 to 10000 nM | CCCC[C@H]1C(=O)N[C@@H](CC(N)=O)C(=O)N2CCC[C@H]2C(=O)N[C@@H](CO)C(=O)N[C@@H](CCO)C(=O)N2CCC[C@H]2C(=O)N[C@@H](Cc2c[nH]c3ccccc23)C(=O)N[C@@H](CO)C(=O)N[C@@H](Cc2c[nH]c3ccccc23)C(=O)N(C)[C@@H](C)C(=O)N(C)[C@@H](C)C(=O)N[C@@H](CCC(=O)O)C(=O)NC(C(=O)NCC(N)=O)CSCC(=O)N[C@@H](Cc2ccc(O)cc2)C(=O)N1C (some centres unmarked) [Example 10209] ({CH2CO}-Y[NMeNle]NPS[hSer]PWSW[NMeA][NMeA]E[ξC]G-NH2; thioether N-14)
1 to 9.9 nM | CCCC[C@H]1C(=O)N(C)[C@@H](CCCC)C(=O)N[C@@H](CCC(=O)O)C(=O)N[C@H](C(=O)NCC(N)=O)CSCC(=O)N[C@@H](Cc2ccc(O)cc2)C(=O)N(C)[C@@H](C)C(=O)N[C@@H](CC(=O)O)C(=O)N2CCC[C@H]2C(=O)N[C@@H](Cc2cnc[nH]2)C(=O)N[C@@H](CCC(=O)O)C(=O)N2C[C@H](O)C[C@H]2C(=O)N[C@@H](Cc2c[nH]c3ccccc23)C(=O)N[C@@H](CO)C(=O)N[C@@H](Cc2c[nH]c3ccccc23)C(=O)N1C [Example 5230] ({CH2CO}-Y[NMeA]DPHE[Hyp]WSW[NMeNle][NMeNle]ECG-NH2; thioether N-14)
10 to 99.9 nM | CCCC[C@H]1C(=O)N2C[C@@H](O)C[C@@H]2C(=O)N[C@@H](CC(=O)O)C(=O)N[C@@H](C(C)C)C(=O)N(C)[C@H](Cc2ccccc2)C(=O)N[C@@H](Cc2ccc(O)cc2)C(=O)N2CCC[C@@H]2C(=O)N[C@@H]([C@@H](C)c2c[nH]c3ccccc23)C(=O)N[C@@H](Cc2ccc(O)cc2)C(=O)N[C@@H](CC(C)C)C(=O)N[C@H](C(=O)NCC(N)=O)CSCC(=O)N[C@@H](Cc2cc(F)c(F)c(F)c2)C(=O)N(C)[C@@H](Cc2ccccc2)C(=O)N1C [Example 10640] ({CH2CO}-[Phe(3,4,5-F3)][NMeF][NMeNle][dHyp]DV[dNMeF]Y[dP][Trp(βS-Me)]YLCG-NH2; thioether N-13)
1 to 9.9 nM | CCCC[C@H]1C(=O)N2C[C@H](O)C[C@@H]2C(=O)N[C@@H](CC(=O)O)C(=O)N[C@@H](C(C)C)C(=O)N(C)[C@@H](Cc2ccccc2)C(=O)N[C@@H](CCCN)C(=O)N2C[C@H](O)C[C@@H]2C(=O)N[C@@H](Cc2c[nH]c3ccccc23)C(=O)N[C@@H](Cc2ccc(O)cc2)C(=O)N[C@@H](CCCN)C(=O)N[C@H](C(=O)NCC(N)=O)CSCC(=O)N[C@@H](Cc2ccc(F)c(F)c2)C(=O)N(C)[C@@H](Cc2ccccc2)C(=O)N1C [Example 9308] ({CH2CO}-[Phe(3,4-F2)][NMeF][NMeNle][d(cisHyp)]DV[NMeF][Orn][d(cisHyp)]WY[Orn]CG-NH2; thioether N-13)
1 to 9.9 nM | CCCC[C@H]1C(=O)N2C[C@@H](O)C[C@@H]2C(=O)N[C@@H](CC(=O)O)C(=O)N[C@@H](C(C)C)C(=O)N(C)[C@@H](Cc2ccccc2)C(=O)N[C@@H](CCC(=O)O)C(=O)N2CCCC[C@@H]2C(=O)N[C@@H](Cc2cn(CC(=O)O)c3ccccc23)C(=O)N[C@@H](Cc2ccc(O)cc2)C(=O)N[C@@H](CCN)C(=O)N[C@H](C(=O)NCC(N)=O)CSCC(=O)N[C@@H](Cc2cc(F)c(F)c(F)c2)C(=O)N(C)[C@@H](Cc2ccccc2)C(=O)N1C [Example 10585] ({CH2CO}-[Phe(3,4,5-F3)][NMeF][NMeNle][dHyp]DV[NMeF]E[dPip][Trp(1-CH2COOH)]Y[Dab]CG-NH2; thioether N-13)
1 to 9.9 nM | CCCC[C@H]1C(=O)N2CCC[C@@H]2C(=O)N[C@@H](CC(=O)O)C(=O)N[C@@H](C(C)C)C(=O)N(C)[C@@H](Cc2ccccc2)C(=O)N[C@@H](CCC(=O)O)C(=O)N2CCCC[C@@H]2C(=O)N[C@@H](Cc2c[nH]c3ccccc23)C(=O)N[C@@H](Cc2ccc(O)cc2)C(=O)N[C@@H](CCN)C(=O)N[C@H](C(=O)NCC(N)=O)CSCC(=O)N[C@@H](Cc2cc(F)c(F)c(F)c2)C(=O)N(C)[C@@H](Cc2ccc(F)cc2)C(=O)N1C [Example 10568] ({CH2CO}-[Phe(3,4,5-F3)][NMePhe(4-F)][NMeNle][dP]DV[NMeF]E[dPip]WY[Dab]CG-NH2; thioether N-13)
